The record followed here is patent US8114602B2 (priority 2003, dated 2012).

pKd: −log10 of the molar value. Several values for one entry are separate records, joined by “and”; a condition that tells them apart may be missing. Identical values can stand only once. Entries after “also recorded” stand apart in the source; their conditions may differ.

The subject of test [1] is GTIB. The class given is binding, bovine.
The test system of test [2] is membranes free of GM1 and GTIB. The class given is binding.
The subject of test [3] is GM1. The class given is binding, bovine. Set-up: Ei (effective interaction energy): unit not given here.
Test [4] addresses GTIB. Format: binding, bovine. The conditions noted are these: read-out: effective dissociation constant.
Test [5] deals with GM1. Format: binding, bovine. The conditions noted are these: read-out: effective dissociation constant.

For the substance α-Bungarotoxin [BT], in test [1], the “Ei (effective interaction energy)” value turned out to be 2.71 ± 0.08 and the “colloidal phase response (condensed to dispersed transition)” value (“colloidal phase response” for short) is reported as “no effect”. Also, in test [2], the “Ei (effective interaction energy)” value is reported as 2.67 ± 0.10 and the “detection signal / binding in selectivity series” value is listed as “Negative signals”. In test [3], the “Ei (effective interaction energy)” value was found to be 2.84 ± 0.02 and the “colloidal phase response” value was “no effect”.

Take tetanus toxin [TT]: in test [1], the “colloidal phase response” value is “triggered formation of a dispersed phase; also recorded: induces a condensed to dispersed phase transition”, the “detection signal / binding in selectivity series” value is listed as “positive signal; also recorded: detected binding” and the “first peak in the g(r) plot” value is “noticeably absent”. In addition, the pKd in test [4] is ~7.22 and ~7.39. For the same substance, in test [2], the “Ei (effective interaction energy)” value is 2.61 ± 0.05 and the “detection signal / binding in selectivity series” value is on record as “Negative signals”. In addition, in test [3], the “Ei (effective interaction energy)” value turned out to be 2.63 ± 0.05, the “colloidal phase response” value is “no effect” and the “detection signal / binding in selectivity series” value is “Negative signals”.

As to Cholera Toxin B-subunit [CTB], the pKd in test [5] was ~7.39 and ~7.22. For the same substance, in test [1], the “Ei (effective interaction energy)” value is given as 2.47 ± 0.09 and the “colloidal phase response” value is recorded as “without producing any effect; also recorded: no effect”. Moreover, in test [2], the “Ei (effective interaction energy)” value worked out at 2.52 ± 0.09 and the “detection signal / binding in selectivity series” value is “Negative signals; also recorded: absence of binding”. Also, in test [3], the “Ei (effective interaction energy)” value worked out at 0.56 ± 0.12, the “colloidal phase response” value is “triggered the transition to a dispersed phase; also recorded: induces the transition”, the “detection signal / binding in selectivity series” value is recorded as “positive signal; also recorded: detected binding” and the “first peak in the g(r) plot” value is listed as “noticeably absent”.
